Experimental data published in publication PMC12532338, “Characterization of a sesquiterpene synthase and a short-chain dehydrogenase in zerumbone biosynthesis and the applications in engineered Saccharomyces cerevisiae” (Frontiers in Plant Science, 2025).

Target: T1, CwTPS8 (Curcuma wenyujin, UniProt A0A8E5B8H5)
T1 construct: complete ORF in pMAL-His (pMAL-c2x with His(8)-tag), E. coli BL21(DE3), Ni-NTA purified; tag removal not described
Assay: GC-MS of hexane-extracted products
Format: biochemical
Settings: formation of main product β-caryophyllene; 50 mM HEPES pH 7.5, 10 mM MgCl2, 5 mM DTT, 5% glycerol; 30°C, 10 min; 10-150 µM FPP; read-out: K m of β-caryophyllene

T1 sequence (A0A8E5B8H5 entry or part of it): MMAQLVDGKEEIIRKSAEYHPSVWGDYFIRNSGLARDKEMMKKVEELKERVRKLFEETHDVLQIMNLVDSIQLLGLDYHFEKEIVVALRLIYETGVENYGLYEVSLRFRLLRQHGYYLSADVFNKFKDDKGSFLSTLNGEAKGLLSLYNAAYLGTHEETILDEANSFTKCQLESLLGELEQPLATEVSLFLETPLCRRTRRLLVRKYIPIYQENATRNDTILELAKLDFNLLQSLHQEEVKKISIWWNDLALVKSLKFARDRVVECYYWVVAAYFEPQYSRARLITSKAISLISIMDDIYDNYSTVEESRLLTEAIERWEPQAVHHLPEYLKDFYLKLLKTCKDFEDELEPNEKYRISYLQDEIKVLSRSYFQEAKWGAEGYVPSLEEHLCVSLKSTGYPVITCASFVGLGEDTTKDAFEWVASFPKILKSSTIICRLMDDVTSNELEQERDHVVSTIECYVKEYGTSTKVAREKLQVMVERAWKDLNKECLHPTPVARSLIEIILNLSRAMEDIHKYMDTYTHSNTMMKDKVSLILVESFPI

Km: 28 µM
SMILES: CC(C)=CCC/C(C)=C/CC/C(C)=C/CO[P@@](=O)(O)OP(=O)(O)O [FPP]
